{
  "source": "ChEMBL document CHEMBL4334553",
  "about": "“Discovery of Hydroxyamidine Based Inhibitors of IDO1 for Cancer Immunotherapy with Reduced Potential for Glucuronidation” (ACS Med Chem Lett, 2020)",
  "key": {"[1]": {"target": "T1, Indoleamine 2,3-dioxygenase 1 (Homo sapiens, UniProt P14902)", "T1 sequence (P14902 whole entry)": "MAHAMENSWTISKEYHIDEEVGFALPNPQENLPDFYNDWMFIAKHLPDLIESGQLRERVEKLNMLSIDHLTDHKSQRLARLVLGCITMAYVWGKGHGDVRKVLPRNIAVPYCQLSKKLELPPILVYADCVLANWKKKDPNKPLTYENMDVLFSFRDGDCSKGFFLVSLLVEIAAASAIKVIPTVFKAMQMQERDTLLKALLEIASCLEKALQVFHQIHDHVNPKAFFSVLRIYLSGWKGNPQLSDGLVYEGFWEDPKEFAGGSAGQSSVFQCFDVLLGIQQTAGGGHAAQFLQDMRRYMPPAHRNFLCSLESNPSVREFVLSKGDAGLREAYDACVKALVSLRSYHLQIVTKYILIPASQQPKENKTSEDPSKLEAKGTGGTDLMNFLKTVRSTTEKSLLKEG", "test": "Inhibition of human N-terminal GST-tagged IDO1 expressed in Escherichia coli Rosetta(DE3) pLysS using L-tryptophan as substrate measured after 1 hr by fluorescence assay"}, "[2]": {"target": "T1, Indoleamine 2,3-dioxygenase 1", "test": "Inhibition of IDO1 in interferon-gamma-induced human SKOV3 cells assessed as N-formylkynurenine formation using L-tryptophan as substrate measured after 24 hrs by fluorescence assay"}, "[3]": {"test": "Half life in human liver microsomes", "format": "ADME, Microsome"}, "[4]": {"test": "Half life in mouse liver microsomes", "format": "ADME, Microsome"}, "[5]": {"target": "T2, UGT1A9 (Homo sapiens, UniProt O60656)", "T2 sequence (O60656 whole entry)": "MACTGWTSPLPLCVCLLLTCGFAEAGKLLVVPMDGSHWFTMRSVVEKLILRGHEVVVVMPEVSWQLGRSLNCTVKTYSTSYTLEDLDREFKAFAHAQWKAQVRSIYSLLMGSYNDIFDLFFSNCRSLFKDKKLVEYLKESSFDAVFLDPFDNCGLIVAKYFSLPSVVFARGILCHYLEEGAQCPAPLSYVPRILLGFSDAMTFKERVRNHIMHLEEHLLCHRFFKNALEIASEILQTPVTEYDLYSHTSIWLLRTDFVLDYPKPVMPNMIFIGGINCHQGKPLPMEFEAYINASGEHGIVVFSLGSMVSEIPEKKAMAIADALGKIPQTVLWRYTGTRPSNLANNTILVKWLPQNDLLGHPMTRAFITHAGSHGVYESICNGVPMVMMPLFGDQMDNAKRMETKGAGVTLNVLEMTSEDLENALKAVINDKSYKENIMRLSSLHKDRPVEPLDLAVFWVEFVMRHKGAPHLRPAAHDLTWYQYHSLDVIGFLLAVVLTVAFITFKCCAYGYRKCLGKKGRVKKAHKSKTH", "test": "Stability assessed as recombinant UGT1A9 (unknown origin) mediated compound glucuronidation by measuring half-life at 1 uM incubated in water bath by shaking at 37 degree C measured upto 60 mins in presence of UDPGA by LC-MS/MS analysis", "format": "ADME"}, "[6]": {"target": "Tryptophan 2,3-dioxygenase (Homo sapiens, UniProt P48775)", "sequence (P48775 whole entry)": "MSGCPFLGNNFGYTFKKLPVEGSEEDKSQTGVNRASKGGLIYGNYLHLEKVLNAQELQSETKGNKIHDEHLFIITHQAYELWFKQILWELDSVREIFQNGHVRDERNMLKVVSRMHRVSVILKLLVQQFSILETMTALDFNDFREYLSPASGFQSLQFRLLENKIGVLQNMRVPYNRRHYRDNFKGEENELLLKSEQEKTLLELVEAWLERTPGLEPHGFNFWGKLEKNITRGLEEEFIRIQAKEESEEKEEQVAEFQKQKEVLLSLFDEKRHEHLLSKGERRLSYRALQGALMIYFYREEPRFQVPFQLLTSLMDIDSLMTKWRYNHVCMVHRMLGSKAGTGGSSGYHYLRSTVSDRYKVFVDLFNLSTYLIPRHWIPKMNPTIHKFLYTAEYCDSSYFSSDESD", "test": "Inhibition of TDO in human HEK cells", "format": "cell-based"}, "[7]": {"test": "Half life in rat liver microsomes", "format": "ADME, Microsome"}, "[8]": {"target": "T1, Indoleamine 2,3-dioxygenase 1", "test": "Inhibition IDO1 in LPS/IFN-gamma stimulated human whole blood assessed as reduction in tryptophan/kynurenine level preincubated for 15 mins followed by LPS/IFN-gamma stimulation measured after 20 hrs by LC-MS/MS analysis", "format": "tissue-based"}, "[9]": {"test": "Protein binding in human plasma", "format": "ADME, cell-free", "settings": "read-out: PPB (converted)"}, "[10]": {"test": "Protein binding in mouse plasma", "format": "ADME, cell-free", "settings": "read-out: PPB (converted)"}, "[11]": {"test": "Protein binding in rat plasma", "format": "ADME, cell-free", "settings": "read-out: PPB (converted)"}, "[12]": {"target": "Cytochrome P450 3A4 (Homo sapiens, UniProt P08684)", "sequence (P08684 whole entry)": "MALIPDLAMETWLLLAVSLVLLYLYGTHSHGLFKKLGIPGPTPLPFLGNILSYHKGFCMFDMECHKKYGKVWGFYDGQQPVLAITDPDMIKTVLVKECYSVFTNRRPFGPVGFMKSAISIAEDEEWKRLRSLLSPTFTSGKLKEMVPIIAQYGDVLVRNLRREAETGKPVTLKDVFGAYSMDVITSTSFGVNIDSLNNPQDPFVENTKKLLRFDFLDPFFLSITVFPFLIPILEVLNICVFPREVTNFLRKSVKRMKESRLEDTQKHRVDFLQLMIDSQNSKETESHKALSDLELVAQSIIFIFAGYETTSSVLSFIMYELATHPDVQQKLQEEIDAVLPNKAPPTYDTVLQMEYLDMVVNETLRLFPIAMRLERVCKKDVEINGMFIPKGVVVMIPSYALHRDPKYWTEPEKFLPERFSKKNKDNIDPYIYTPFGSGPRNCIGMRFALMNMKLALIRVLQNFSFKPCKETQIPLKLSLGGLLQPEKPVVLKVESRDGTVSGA", "test": "Inhibition of CYP3A4 (unknown origin)", "format": "ADME"}, "[13]": {"target": "Cytochrome P450 2D6 (Homo sapiens, UniProt P10635)", "sequence (P10635 whole entry)": "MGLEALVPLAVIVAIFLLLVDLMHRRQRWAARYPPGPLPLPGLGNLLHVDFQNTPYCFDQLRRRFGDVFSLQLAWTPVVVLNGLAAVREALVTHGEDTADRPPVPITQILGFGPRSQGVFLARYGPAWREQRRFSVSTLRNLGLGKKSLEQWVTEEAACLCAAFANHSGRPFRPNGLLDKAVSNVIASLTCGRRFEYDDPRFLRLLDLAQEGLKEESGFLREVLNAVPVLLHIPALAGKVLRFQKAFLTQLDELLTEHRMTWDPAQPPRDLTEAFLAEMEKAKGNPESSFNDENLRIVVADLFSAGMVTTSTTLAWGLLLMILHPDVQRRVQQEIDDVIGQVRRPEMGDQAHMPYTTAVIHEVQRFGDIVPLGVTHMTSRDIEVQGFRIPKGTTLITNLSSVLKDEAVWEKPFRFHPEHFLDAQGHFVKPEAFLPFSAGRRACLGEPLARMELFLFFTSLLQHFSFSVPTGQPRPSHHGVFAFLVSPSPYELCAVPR", "test": "Inhibition of CYP2D6 (unknown origin)", "format": "ADME"}, "[14]": {"target": "Cytochrome P450 2C9 (Homo sapiens, UniProt P11712)", "sequence (P11712 whole entry)": "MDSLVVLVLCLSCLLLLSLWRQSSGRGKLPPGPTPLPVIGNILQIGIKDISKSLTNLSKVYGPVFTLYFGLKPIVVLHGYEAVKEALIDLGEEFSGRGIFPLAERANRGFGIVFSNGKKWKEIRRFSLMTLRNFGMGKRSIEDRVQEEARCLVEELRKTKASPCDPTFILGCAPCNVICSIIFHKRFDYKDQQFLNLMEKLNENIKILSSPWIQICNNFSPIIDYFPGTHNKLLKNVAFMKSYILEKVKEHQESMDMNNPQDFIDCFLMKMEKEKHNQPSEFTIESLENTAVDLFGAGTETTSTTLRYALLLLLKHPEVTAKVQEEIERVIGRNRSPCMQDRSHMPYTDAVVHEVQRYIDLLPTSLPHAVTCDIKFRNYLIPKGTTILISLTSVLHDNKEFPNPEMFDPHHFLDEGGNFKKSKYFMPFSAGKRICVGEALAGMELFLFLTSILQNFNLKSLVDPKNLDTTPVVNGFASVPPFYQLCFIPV", "test": "Inhibition of CYP2C9 (unknown origin)", "format": "ADME"}, "[15]": {"target": "Cytochrome P450 2C19 (Homo sapiens, UniProt P33261)", "sequence (P33261 whole entry)": "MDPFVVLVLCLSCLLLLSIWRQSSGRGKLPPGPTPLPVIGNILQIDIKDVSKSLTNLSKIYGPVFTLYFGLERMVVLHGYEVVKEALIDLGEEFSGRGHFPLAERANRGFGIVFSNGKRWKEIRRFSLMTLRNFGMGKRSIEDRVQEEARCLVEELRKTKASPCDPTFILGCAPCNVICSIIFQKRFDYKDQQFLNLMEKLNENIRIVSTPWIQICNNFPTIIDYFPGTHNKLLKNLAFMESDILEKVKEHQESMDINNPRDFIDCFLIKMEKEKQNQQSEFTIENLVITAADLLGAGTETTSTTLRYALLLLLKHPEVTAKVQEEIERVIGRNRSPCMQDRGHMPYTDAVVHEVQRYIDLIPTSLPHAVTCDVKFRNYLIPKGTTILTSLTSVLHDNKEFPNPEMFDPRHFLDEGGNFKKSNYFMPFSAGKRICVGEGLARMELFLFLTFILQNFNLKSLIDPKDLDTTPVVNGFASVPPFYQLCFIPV", "test": "Inhibition of CYP2C19 (unknown origin)", "format": "ADME"}, "[16]": {"test": "Cmax in mouse at 10 mg/kg, po by capillary micro-sampling analysis", "format": "ADME, organism-based", "set-up": "dose 10 mg/kg, route oral", "settings": "in vivo"}, "[17]": {"test": "AUC (0 to 24 hrs) in mouse at 10 mg/kg, po by capillary micro-sampling analysis", "format": "ADME, organism-based", "set-up": "dose 10 mg/kg, time < 24 hr, route oral", "settings": "in vivo"}, "[18]": {"test": "Half life in mouse at 10 mg/kg, po by capillary micro-sampling analysis", "format": "ADME, organism-based", "settings": "in vivo"}, "[19]": {"test": "Cmax in rat at 5 mg/kg, po administered as single dose by capillary micro-sampling analysis", "format": "ADME, organism-based", "set-up": "dose 5 mg/kg, route oral", "settings": "in vivo"}, "[20]": {"test": "AUC (0 to 24 hrs) in rat at 5 mg/kg, po administered as single dose by capillary micro-sampling analysis", "format": "ADME, organism-based", "set-up": "dose 5 mg/kg, time < 24 hr, route oral", "settings": "in vivo"}, "[21]": {"test": "Clearance in rat at 1 mg/kg, iv administered as single dose by capillary micro-sampling analysis", "format": "ADME, organism-based", "settings": "in vivo"}, "[22]": {"test": "Volume of distribution in rat at 1 mg/kg, iv administered as single dose by capillary micro-sampling analysis", "format": "ADME, organism-based", "settings": "in vivo"}, "[23]": {"test": "Half-life in rat at 1 mg/kg, iv administered as single dose by capillary micro-sampling analysis", "format": "ADME, organism-based", "settings": "in vivo"}, "[24]": {"test": "Oral bioavailability in rat at 5 mg/kg administered as single dose by capillary micro-sampling analysis", "format": "ADME, organism-based", "settings": "in vivo"}, "[25]": {"test": "AUC in humanized PXB-mouse assessed as ratio of glucuronide to parent compound at 10 mg/kg, po administered as single dose", "format": "ADME, organism-based", "settings": "in vivo"}, "[26]": {"test": "Cmax in humanized PXB-mouse assessed as ratio of glucuronide to parent compound at 10 mg/kg, po administered as single dose", "format": "ADME, organism-based", "settings": "in vivo"}, "[27]": {"tested_on": "CT26", "test": "Antitumor activity against mouse CT26 cells implanted in immunocompetent BALB/c mouse assessed as reduction in tumour growth at 100 mg/kg, po administered twice daily over 15 days starting from day 10 post implantation measured thrice per week by digital caliper method", "format": "functional, organism-based"}, "[28]": {"tested_on": "CT26", "test": "Synergistic antitumor activity against mouse CT26 cells implanted in immunocompetent BALB/c mouse assessed as reduction in tumour growth at 100 mg/kg, po administered twice daily over 15 days starting from day 10 post implantation in presence of CTLA-4 antibody at 100 ug, ip administered at day 3,6,9 measured thrice per week by digital caliper method and monitored for 45 days", "format": "functional, organism-based"}, "[29]": {"tested_on": "CT26", "test": "Synergistic antitumor activity against mouse CT26 cells implanted in immunocompetent BALB/c mouse assessed as survival at […] at 100 mg/kg, po administered twice daily over 15 days starting from day 10 post implantation in presence of CTLA-4 antibody at 100 ug, ip administered at day 3,6,9 measured thrice per week and monitored for 45 days", "format": "functional, organism-based"}, "[30]": {"tested_on": "Mus musculus", "test": "In vivo inhibition of IDO1 in C57BL/6J mouse assessed as reduction in LPS-induced kynurenine level in plasma at 100 mg/kg, po administered via gavage measured after 24 hrs by LC-MS/MS analysis", "format": "functional, organism-based"}},
  "note": "pIC50: −log10 of the molar value. Active and inactive are the calls of the source. The calls are words filed in the database; no cut-off is given here.",
  "data": [
    {"compound": "NS(=O)(=O)CC(=O)NCCSc1nonc1/C(=N/O)Nc1cccc(Cl)c1", "values": [
      {"measurement": "pIC50", "setting": "[1]", "result": 7.68},
      {"measurement": "pIC50", "setting": "[2]", "result": 8.00},
      {"measurement": "half-life", "setting": "[3]", "result": "> 3", "unit": "h"},
      {"measurement": "half-life", "setting": "[4]", "result": 1.26, "unit": "h"},
      {"measurement": "half-life at 1 µM", "setting": "[5]", "result": 0.9, "unit": "h"},
      {"measurement": "pIC50", "setting": "[6]", "result": "< 5.00"},
      {"measurement": "half-life", "setting": "[7]", "result": 0.562, "unit": "h"},
      {"measurement": "pIC50", "setting": "[8]", "result": 6.66},
      {"measurement": "fraction unbound", "setting": "[9]", "result": 0.046},
      {"measurement": "fraction unbound", "setting": "[10]", "result": 0.026},
      {"measurement": "fraction unbound", "setting": "[11]", "result": 0.043},
      {"measurement": "pIC50", "setting": "[12]", "result": "< 5.00"},
      {"measurement": "pIC50", "setting": "[13]", "result": "< 5.00"},
      {"measurement": "pIC50", "setting": "[14]", "result": "< 5.00"},
      {"measurement": "pIC50", "setting": "[15]", "result": "< 5.00"},
      {"measurement": "Cmax", "setting": "[16]", "result": 5, "unit": "µM"},
      {"measurement": "AUC(0-t) at 24 h", "setting": "[17]", "result": 11.9, "unit": "µM·h"},
      {"measurement": "half-life", "setting": "[18]", "result": 2.6, "unit": "h"},
      {"measurement": "Cmax", "setting": "[19]", "result": 5.6, "unit": "µM"},
      {"measurement": "AUC(0-t) at 24 h", "setting": "[20]", "result": 26, "unit": "µM·h"},
      {"measurement": "clearance", "setting": "[21]", "result": 3.65, "unit": "mL/min/kg"},
      {"measurement": "Vd", "setting": "[22]", "result": 0.33, "unit": "L/kg"},
      {"measurement": "half-life", "setting": "[23]", "result": 1.5, "unit": "h"},
      {"measurement": "bioavailability", "setting": "[24]", "result": 28, "unit": "%"},
      {"measurement": "Ratio", "setting": "[25]", "result": "> 2"},
      {"measurement": "Ratio", "setting": "[26]", "result": "> 3"},
      {"measurement": "Activity", "setting": "[27]", "result": "Active"},
      {"measurement": "Activity", "setting": "[28]", "result": "Active"},
      {"measurement": "Activity", "setting": "[29]", "result": "Active"},
      {"measurement": "inhibition", "setting": "[30]", "result": "Active"}
    ]}
  ]
}
